Source: ChEMBL document CHEMBL1146036, “Structural determinants of opioid activity in derivatives of 14-aminomorphinones: effect of substitution in the aromatic ring of cinnamoylaminomorphinones and codeinones” (J Med Chem, 2006)

Key:
Mus musculus [1] = assay: Agonist activity in sc dosed mouse by phenylquinone abdominal stretching assay; type: functional; details: Abdomen
Mus musculus [2] = assay: Agonist activity in mouse by hot water tail withdrawal assay at 32 mg/kg, sc; type: functional; details: route subcutaneous
Mus musculus [3] = assay: Antagonist activity against morphine-induced antinociception in sc dosed mouse by tail flick assay; type: functional
Mus musculus [4] = assay: Antagonist activity against morphine-induced antinociception in sc dosed mouse by hot water tail withdrawal assay at 32 mg/kg, sc; type: functional; parameters: scale not given: the % may be the effect or the level left; details: route subcutaneous
Mus musculus [5] = assay: Agonist activity in sc dosed mouse by tail flick assay; type: functional
Mu-type opioid receptor [6] = target: Mu-type opioid receptor (Cavia porcellus, UniProt P97266); assay: Binding affinity to MOR in guinea pig brain membrane; type: cell membranes
Mu-type opioid receptor [7] = target: T1, Mu-type opioid receptor (Homo sapiens, UniProt P35372); assay: Stimulation of [35S]GTPgammaS binding to human recombinant MOR; type: functional
[8] = target: T2, Delta-type opioid receptor (Homo sapiens, UniProt P41143); assay: Stimulation of [35S]GTPgammaS binding to human recombinant DOR relative to DPDPE; type: functional
Mus musculus [9] = assay: Agonist activity in sc dosed mouse by hot water tail withdrawal assay at 10 mg/kg, sc; type: functional; details: route subcutaneous
[10] = target: T3, Kappa-type opioid receptor (Homo sapiens, UniProt P41145); assay: Stimulation of [35S]GTP-gamma-S binding to human recombinant KOR; type: functional
[11] = target: Kappa-type opioid receptor (Cavia porcellus, UniProt P41144); assay: Binding affinity to KOR in guinea pig brain membrane; type: cell membranes
[12] = target: T2, Delta-type opioid receptor; assay: Stimulation of [35S]GTP-gamma-S binding to human recombinant DOR; type: functional
Mu-type opioid receptor [13] = target: T1, Mu-type opioid receptor; assay: Displacement of [3H]DAMGO from human recombinant MOR expressed in CHO cells; type: cell-based
[14] = target: T2, Delta-type opioid receptor; assay: Displacement of [3H]Cl-DPDPE from human recombinant DOR expressed in CHO cells; type: cell-based
[15] = target: T3, Kappa-type opioid receptor; assay: biochemical; type: cell-based, CHO
Description: Displacement of [3H]U-69593 from human recombinant KOR expressed in CHO cells

Mu-type opioid receptor [16] = target: T1, Mu-type opioid receptor; assay: Reversal of stimulation of [35S]GTP-gamma-S binding to human recombinant MOR transfected in CHO cells relative to DAMGO; type: functional, cell-based
Mus musculus [17] = assay: Antagonist activity against morphine-induced antinociception in sc dosed mouse by tail flick assay at 3 mg/kg, sc; type: functional; details: route subcutaneous
[18] = target: T2, Delta-type opioid receptor; details: CHO
Description: Reversal of stimulation of [35S]GTP-gamma-S binding to human recombinant DOR transfected in CHO cells relative to DPDPE

[19] = target: T3, Kappa-type opioid receptor; details: CHO
Description: Reversal of stimulation of [35S]GTPgammaS binding to human recombinant KOR transfected in CHO cells relative to U69593

[20] = target: T2, Delta-type opioid receptor; assay: Activity at human recombinant DOR transfected in CHO cells assessed as reversal of stimulation of [35S]GTP-gamma-S binding; type: functional, cell-based
Mus musculus [21] = assay: Agonist activity in mouse by phenylquinone abdominal stretching assay at 1 mg/kg, sc; type: functional; details: Abdomen, route subcutaneous
Mu-type opioid receptor [22] = target: T1, Mu-type opioid receptor; assay: Activity at human recombinant MOR transfected in CHO cells assessed as reversal of stimulation of [35S]GTP-gamma-S binding; type: functional, cell-based; details: filed as antagonist
[23] = target: T3, Kappa-type opioid receptor; assay: Activity at human recombinant KOR transfected in CHO cells assessed as reversal of stimulation of [35S]GTPgammaS binding; type: functional, cell-based; details: filed as antagonist
Mus musculus [24] = assay: Agonist activity in sc dosed mouse by hot water tail withdrawal assay at 1 mg/kg, sc; type: functional; details: route subcutaneous

T3 sequence (P41145 whole entry): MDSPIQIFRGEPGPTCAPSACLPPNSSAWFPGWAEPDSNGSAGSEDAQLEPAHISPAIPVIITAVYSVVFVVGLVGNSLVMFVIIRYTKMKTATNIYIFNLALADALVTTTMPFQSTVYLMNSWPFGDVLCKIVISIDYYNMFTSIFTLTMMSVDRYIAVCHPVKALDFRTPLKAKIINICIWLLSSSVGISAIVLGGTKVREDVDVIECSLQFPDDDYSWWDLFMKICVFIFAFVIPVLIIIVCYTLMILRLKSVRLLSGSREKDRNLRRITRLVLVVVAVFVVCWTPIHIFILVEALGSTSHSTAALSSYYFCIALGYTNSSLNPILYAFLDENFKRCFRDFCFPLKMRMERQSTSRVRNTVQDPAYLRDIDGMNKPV
T2 sequence (P41143 whole entry): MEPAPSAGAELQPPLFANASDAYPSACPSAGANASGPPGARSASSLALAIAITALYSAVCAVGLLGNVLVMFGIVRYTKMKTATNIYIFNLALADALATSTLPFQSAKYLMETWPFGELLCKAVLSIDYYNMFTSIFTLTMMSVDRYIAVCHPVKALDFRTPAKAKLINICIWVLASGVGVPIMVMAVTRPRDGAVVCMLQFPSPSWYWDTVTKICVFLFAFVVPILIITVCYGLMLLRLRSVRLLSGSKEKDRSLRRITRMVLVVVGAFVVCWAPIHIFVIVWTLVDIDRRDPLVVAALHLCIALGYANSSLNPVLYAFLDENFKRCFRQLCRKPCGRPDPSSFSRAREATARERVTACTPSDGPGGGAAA
T1 sequence (P35372 whole entry): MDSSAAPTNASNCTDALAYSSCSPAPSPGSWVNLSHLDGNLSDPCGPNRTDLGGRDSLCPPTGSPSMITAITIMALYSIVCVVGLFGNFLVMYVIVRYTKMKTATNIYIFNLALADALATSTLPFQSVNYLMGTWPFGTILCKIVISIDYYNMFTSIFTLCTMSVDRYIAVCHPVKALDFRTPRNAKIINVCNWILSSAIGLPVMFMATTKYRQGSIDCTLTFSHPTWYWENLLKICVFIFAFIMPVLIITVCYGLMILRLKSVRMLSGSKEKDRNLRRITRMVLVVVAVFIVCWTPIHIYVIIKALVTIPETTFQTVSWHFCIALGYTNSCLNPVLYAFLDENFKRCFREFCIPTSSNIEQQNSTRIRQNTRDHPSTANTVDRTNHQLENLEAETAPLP
Sequence of Kappa-type opioid receptor (Cavia porcellus, UniProt P41144) (P41144 whole entry): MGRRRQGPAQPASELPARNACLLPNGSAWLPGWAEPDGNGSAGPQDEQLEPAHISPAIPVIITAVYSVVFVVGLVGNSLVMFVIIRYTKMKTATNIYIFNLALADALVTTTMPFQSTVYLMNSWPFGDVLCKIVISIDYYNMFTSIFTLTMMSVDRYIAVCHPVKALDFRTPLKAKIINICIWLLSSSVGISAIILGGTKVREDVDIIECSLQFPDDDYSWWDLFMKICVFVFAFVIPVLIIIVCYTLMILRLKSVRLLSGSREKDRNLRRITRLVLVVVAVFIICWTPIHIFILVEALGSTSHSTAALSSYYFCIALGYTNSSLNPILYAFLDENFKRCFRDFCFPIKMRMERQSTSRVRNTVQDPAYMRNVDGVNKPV
Sequence of Mu-type opioid receptor (Cavia porcellus, UniProt P97266) (P97266 whole entry): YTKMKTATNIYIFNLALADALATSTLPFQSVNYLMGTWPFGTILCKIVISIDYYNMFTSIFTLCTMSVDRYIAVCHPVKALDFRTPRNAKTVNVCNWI

| SMILES | ED50 (Mus musculus [1]) | Activity (Mus musculus [2]) | AD50 (Mus musculus [3]) | Activity (Mus musculus [4]) | ED50 (Mus musculus [5]) | EC50 (Mu-type opioid receptor [7]) | Activity [8] | EC50 [10] | EC50 [12] | Ki (Mu-type opioid receptor [13]) | Ki [14] | Ki [15] | also measured |
| --- | --- | --- | --- | --- | --- | --- | --- | --- | --- | --- | --- | --- | --- |
| COc1ccc2c3c1O[C@H]1C(=O)CC[C@@]4(NC(=O)/C=C/c5ccc(C)cc5)[C@@H](C2)N(CC2CC2)CC[C@]314 | 0.1 mg/kg | 10% | 5.7 mg/kg | 40% | > 30 mg/kg |  |  |  |  |  |  |  |  |
| COc1ccc2c3c1O[C@H]1C(=O)CC[C@@]4(NC(=O)/C=C/c5ccccc5Cl)[C@@H](C2)N(CC2CC2)CC[C@]314 |  |  |  | 10% |  | 3.8 nM | 36% | 9 nM | 17.5 nM |  |  |  | Ki (Mu-type opioid receptor [6]): 0.6 nM; Activity (Mus musculus [9]): >90%; Ki [11]: 2.4 nM |
| COc1ccc2c3c1O[C@H]1C(=O)CC[C@@]4(NC(=O)/C=C/c5ccccc5C)[C@@H](C2)N(C)CC[C@]314 |  |  |  |  |  | 0.5 nM | 108% | 5.6 nM | 4.6 nM | 0.4 nM | 0.42 nM | 2.3 nM |  |
| Cc1ccccc1/C=C/C(=O)N[C@@]12CCC(=O)[C@@H]3Oc4c(O)ccc5c4[C@@]31CCN(CC1CC1)[C@@H]2C5 | 3.17 mg/kg | 0% |  | 65% | > 30 mg/kg |  |  |  |  | 0.72 nM | 1.25 nM | 1.5 nM | Ke (Mu-type opioid receptor [16]): 0.29 nM; inhibition in vivo at 3 mg/kg (Mus musculus [17]): 50%; Ke [18]: 0.4 nM; Ke [19]: 0.16 nM |
| O=C(/C=C/c1ccc([N+](=O)[O-])cc1)N[C@@]12CCC(=O)[C@@H]3Oc4c(O)ccc5c4[C@@]31CCN(CC1CC1)[C@@H]2C5 |  | 40% |  | >90% |  |  |  |  |  |  |  |  |  |
| O=C(/C=C/c1ccccc1Cl)N[C@@]12CCC(=O)[C@@H]3Oc4c(O)ccc5c4[C@@]31CCN(CC1CC1)[C@@H]2C5 |  | 0% |  | 65% |  |  |  |  |  | 0.71 nM | 1.3 nM | 2.4 nM | Ke (Mu-type opioid receptor [16]): 0.45 nM; Ke [18]: 0.67 nM; Ke [19]: 0.38 nM |
| Cc1ccccc1/C=C/C(=O)N[C@@]12CCC(=O)[C@@H]3Oc4c(O)ccc5c4[C@@]31CCN(C)[C@@H]2C5 | 0.03 mg/kg |  | >30 mg/kg |  | 0.08 mg/kg | 0.04 nM | 71% | 0.2 nM | 0.4 nM | 0.21 nM | 0.11 nM | 0.23 nM |  |
| COc1ccc2c3c1O[C@H]1C(=O)CC[C@@]4(NC(=O)/C=C/c5ccc(Cl)cc5)[C@@H](C2)N(CC2CC2)CC[C@]314 | 0.2 mg/kg | 0% | >6 mg/kg | 65% | > 30 mg/kg |  |  |  |  |  | 4.8 nM |  | Ke [18]: 7.2 nM |
| COc1ccc2c3c1O[C@H]1C(=O)CC[C@@]4(NC(=O)/C=C/c5ccc([N+](=O)[O-])cc5)[C@@H](C2)N(CC2CC2)CC[C@]314 |  |  |  | 40% |  |  |  |  |  |  |  |  | Activity (Mus musculus [9]): >90% |
| CN1CC[C@]23c4c5cccc4O[C@H]2C(=O)CC[C@@]3(NC(=O)/C=C/c2ccccc2Cl)[C@H]1C5 | 0.04 mg/kg |  | >30 mg/kg |  | 0.12 mg/kg | 0.04 nM |  | 0.1 nM | 0.1 nM |  |  |  |  |
| COc1ccc2c3c1O[C@H]1C(=O)CC[C@@]4(NC(=O)/C=C/c5ccc(Cl)cc5)[C@@H](C2)N(C)CC[C@]314 | 0.02 mg/kg |  | >30 mg/kg |  | 0.04 mg/kg | 0.9 nM | 50% |  | 5 nM | 0.6 nM | 1 nM |  |  |
| Cc1ccc(/C=C/C(=O)N[C@@]23CCC(=O)[C@@H]4Oc5c(O)ccc6c5[C@@]42CCN(C)[C@@H]3C6)cc1 |  |  | 0.6 mg/kg |  | > 30 mg/kg |  |  |  |  | 0.34 nM | 4 nM | 1.5 nM | Ke (Mu-type opioid receptor [16]): 0.3 nM; Activity ([20]; filed as antagonist): Antagonist; inhibition in vivo at 1 mg/kg (Mus musculus [21]): 57%; Activity (Mu-type opioid receptor [22]): Antagonist; Ke [18]: 2.2 nM; Activity [23]: Antagonist; Ke [19]: 4.1 nM |
| COc1ccc2c3c1O[C@H]1C(=O)CC[C@@]4(NC(=O)/C=C/c5ccccc5Cl)[C@@H](C2)N(C)CC[C@]314 |  |  |  |  |  | 0.5 nM | 110% | 8.5 nM | 2.2 nM | 0.68 nM | 0.58 nM | 2.5 nM |  |
| CN1CC[C@]23c4c5ccc(O)c4O[C@H]2C(=O)CC[C@@]3(NC(=O)/C=C/c2ccc([N+](=O)[O-])cc2)[C@H]1C5 |  |  |  |  |  |  |  |  |  | 0.2 nM | 0.54 nM | 5.5 nM | Ke (Mu-type opioid receptor [16]): 0.13 nM; Ke [18]: 1.4 nM; Ke [19]: 3.3 nM |
| Cc1ccc(CCC(=O)N[C@@]23CCC(=O)[C@@H]4Oc5c(O)ccc6c5[C@@]42CCN(C)[C@@H]3C6)cc1 | 0.09 mg/kg |  | >30 mg/kg |  | 0.5 mg/kg |  |  |  |  | 0.35 nM | 1.25 nM | 0.57 nM | Ke (Mu-type opioid receptor [16]): 0.32 nM; Activity ([20]; filed as partial agonist): Partial agonist; Activity (Mu-type opioid receptor [22]): Antagonist; Ke ([18]; filed as partial agonist): Partial agonist; Activity [23]: Antagonist; Ke [19]: 4.9 nM |
| CN1CC[C@]23c4c5ccc(O)c4O[C@H]2C(=O)C=C[C@@]3(NC(=O)/C=C/c2ccc(Cl)cc2)[C@H]1C5 |  |  | >30 mg/kg |  | 0.5 mg/kg |  |  |  |  |  |  |  |  |
| COc1ccc2c3c1O[C@H]1C(=O)CC[C@@]4(NC(=O)/C=C/c5ccccc5C)[C@@H](C2)N(CC2CC2)CC[C@]314 | 0.03 mg/kg |  | >30 mg/kg | 10% | 0.03 mg/kg | 2.6 nM | 39% | 1.8 nM | 20.9 nM |  |  |  | Ki (Mu-type opioid receptor [6]): 0.2 nM; Activity (Mus musculus [24]): >90%; Ki [11]: 2.1 nM |
| COc1ccc2c3c1O[C@H]1C(=O)CC[C@@]4(NC(=O)/C=C/c5ccccc5[N+](=O)[O-])[C@@H](C2)N(CC2CC2)CC[C@]314 |  | 40% |  |  |  |  |  |  |  |  |  |  |  |
| COc1ccc2c3c1O[C@H]1C(=O)CC[C@@]4(NC(=O)/C=C/c5ccccc5)[C@@H](C2)N(CC2CC2)CC[C@]314 |  | 40% |  | 65% |  |  |  |  |  |  |  |  |  |
| COc1ccc2c3c1O[C@H]1C(=O)CC[C@@]4(NC(=O)/C=C/c5ccc(C)cc5)[C@@H](C2)N(C)CC[C@]314 | 0.4 mg/kg |  | >30 mg/kg |  | 0.06 mg/kg | 2.5 nM | 86% | 84 nM | 76 nM | 0.49 nM | 2.9 nM | 9.9 nM |  |
